Tests used:
[1] = target: T1, HCV polymerase (NS5B) type 1b (Hepatitis C virus genotype 1b, UniProt P26663); assay: Assay of enzyme (HCV polymerase) inhibitory activity, type 1b enzyme; assay type: biochemical, HCV BK strain (type 1b); conditions: HCV polymerase inhibitory activity IC50, 1b, type 1b enzyme
T1 construct: a region encoding NS5B (J Virol 1991 March, 65(3), 1105-13, 544 amino acids after deletion of 47 amino acids on the C-terminal); 6xHis (C); made in house; host or cells: Escherichia coli
In short: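 Rxn: NS5B 1b (BK, ΔC47, His6) 0.5 μg/ml; substrate RNA 5 μg/ml; ATP/GTP/CTP 50 μM, UTP 2 μM + [5,6-3H]UTP; 20 mM Tris pH 7.5, 5 mM MgCl2, 50 mM NaCl, 1 mM EDTA/DTT. 25 °C, 60 min. Stop with TCA/pyrophosphate, filter, scintillation count; IC50 vs. untreated.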

[2] = target: T2, HCV polymerase (NS5B) type 1a (Hepatitis C virus genotype 1a, UniProt P26664); assay: Assay of enzyme (HCV polymerase) inhibitory activity, type 1a enzyme; assay type: biochemical, HCV type 1a (cloned from the blood of patients); conditions: HCV polymerase inhibitory activity IC50, 1a, type 1a enzyme
T2 construct: made in house; host or cells: Escherichia coli (by the 'similar method' of the 1b enzyme)
In short: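 NS5B Δ47 C-term His6 (type 1a, 1.5 μg/ml); substrate RNA 5 μg/ml; ATP/GTP/CTP 50 μM, UTP 2 μM + [5,6-3H]UTP; Tris pH 7.5, MgCl2 5 mM; 25° C, 60 min. TCA/pyrophosphate stop, GF/B filter, scintillation. IC50 vs no-compound control.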

| Structure (SMILES) | IC50 [1] [nM] | IC50 [2] [nM] |
| --- | --- | --- |
| CCn1ncc2sc(N3CCN(S(=O)(=O)c4ccc(C(F)(F)F)cc4)[C@@H](C(=O)NCc4ccc(OC(F)(F)F)cc4)C3)nc2c1=O [Example 1037, (R)-4-(5-ethyl-4-oxo-4,5-dihydro-thiazolo[4,5-d]pyridazin-2-yl)-1-(4-trifluoromethyl-benzenesulfonyl)-piperazine-2-carboxylic acid 4-trifluoromethoxy-benzylamide] | < 100 | < 100 |
| O=C(NCc1ccc(OC(F)(F)F)cc1)[C@H]1CN(c2nn3c(=O)cc(C(F)(F)F)nc3s2)CCN1S(=O)(=O)c1ccc(OC(F)(F)F)cc1 [Example 1038, (R)-4-(5-oxo-7-trifluoromethyl-5H-[1,3,4]thiadiazolo[3,2-a]pyrimidin-2-yl)-1-(4-trifluoromethoxy-benzenesulfonyl)-piperazine-2-carboxylic acid 4-trifluoromethoxy-benzylamide] | 100 to 1000 | 100 to 1000 |
| Cc1ncc2sc(N3CCN(S(=O)(=O)c4ccc(OC(F)(F)C(F)F)cc4)[C@@H](C(=O)NCc4ccc(OC(F)F)cc4)C3)nc2n1 [Example 1039, (R)-4-(5-methyl-thiazolo[4,5-d]pyrimidin-2-yl)-1-[4-(1,1,2,2-tetrafluoro-ethoxy)-benzenesulfonyl]-piperazine-2-carboxylic acid 4-difluoromethoxy-benzylamide] | < 100 | < 100 |
| O=C(NCc1ccc(OC(F)F)cc1F)[C@H]1CN(c2nc3nc(C4CC4)ncc3s2)CCN1S(=O)(=O)c1ccc(C(F)(F)F)cc1 [Example 1040, (R)-4-(5-cyclopropyl-thiazolo[4,5-d]pyrimidin-2-yl)-1-(4-trifluoromethyl-benzenesulfonyl)-piperazine-2-carboxylic acid 4-difluoromethoxy-2-fluoro-benzylamide] | < 100 | < 100 |
| CN(C)C(=O)c1ncc2sc(N3CCN(S(=O)(=O)c4ccc(OC(F)(F)F)cc4)[C@@H](C(=O)NCc4ccc(OC(F)(F)F)cc4)C3)nc2n1 [Example 1041, 2-[(R)-4-(4-trifluoromethoxy-benzenesulfonyl)-3-(4-trifluoromethoxy-benzylcarbamoyl)-piperazin-1-yl]-thiazolo[4,5-d]pyrimidine-5-carboxylic acid dimethylamide] | < 100 | < 100 |
| O=C(NCc1ccc(OC(F)F)cc1F)[C@H]1CN(c2nc3nc(C(F)(F)F)ncc3s2)CCN1S(=O)(=O)c1ccc(C(F)(F)F)cc1 [Example 1042, (R)-1-(4-trifluoromethyl-benzenesulfonyl)-4-(5-trifluoromethyl-thiazolo[4,5-d]pyrimidin-2-yl)-piperazine-2-carboxylic acid 4-difluoromethoxy-2-fluoro-benzylamide] | < 100 | < 100 |
| COCc1ncc2sc(N3CCN(S(=O)(=O)c4ccc(OC(F)(F)F)cc4)[C@@H](C(=O)NCc4ccc(OC(F)(F)F)cc4)C3)nc2n1 [Example 1043, (R)-4-(5-methoxymethyl-thiazolo[4,5-d]pyrimidin-2-yl)-1-(4-trifluoromethoxy-benzenesulfonyl)-piperazine-2-carboxylic acid 4-trifluoromethoxy-benzylamide] | < 100 | < 100 |
| O=C(NCc1ccc(OC(F)F)cc1F)[C@H]1CN(c2nc3nc(C(F)(F)F)ncc3s2)CCN1S(=O)(=O)c1ccc(OC(F)(F)F)cc1 [Example 1044, (R)-1-(4-trifluoromethoxy-benzenesulfonyl)-4-(5-trifluoromethyl-thiazolo[4,5-d]pyrimidin-2-yl)-piperazine-2-carboxylic acid 4-difluoromethoxy-2-fluoro-benzylamide] | < 100 | < 100 |
| O=C(NCc1ccc(OC(F)F)cc1F)[C@H]1CN(c2nc3nc(C4CC4)ncc3s2)CCN1S(=O)(=O)c1ccc(OC(F)(F)F)cc1 [Example 1045, (R)-4-(5-cyclopropyl-thiazolo[4,5-d]pyrimidin-2-yl)-1-(4-trifluoromethoxy-benzenesulfonyl)-piperazine-2-carboxylic acid 4-difluoromethoxy-2-fluoro-benzylamide] | < 100 | < 100 |
| CNC(=O)c1ncc2sc(N3CCN(S(=O)(=O)c4ccc(OC(F)(F)F)cc4)[C@@H](C(=O)NCc4ccc(OC(F)(F)F)cc4)C3)nc2n1 [Example 1046, 2-[(R)-4-(4-trifluoromethoxy-benzenesulfonyl)-3-(4-trifluoromethoxy-benzylcarbamoyl)-piperazin-1-yl]-thiazolo[4,5-d]pyrimidine-5-carboxylic acid methylamide] | < 100 | < 100 |
| CC(C)(O)c1ncc2sc(N3CCN(S(=O)(=O)c4ccc(OC(F)(F)F)cc4)[C@@H](C(=O)NCc4ccc(OC(F)(F)F)cc4)C3)nc2n1 [Example 1047, (R)-4-[5-(1-hydroxy-1-methyl-ethyl)-thiazolo[4,5-d]pyrimidin-2-yl]-1-(4-trifluoromethoxy-benzenesulfonyl)-piperazine-2-carboxylic acid 4-trifluoromethoxy-benzylamide] | < 100 | < 100 |
| CC(=O)c1ncc2sc(N3CCN(S(=O)(=O)c4ccc(OC(F)(F)F)cc4)[C@@H](C(=O)NCc4ccc(OC(F)(F)F)cc4)C3)nc2n1 [Example 1048, (R)-4-(5-acetyl-thiazolo[4,5-d]pyrimidin-2-yl)-1-(4-trifluoromethoxy-benzenesulfonyl)-piperazine-2-carboxylic acid 4-trifluoromethoxy-benzylamide] | < 100 | < 100 |
| O=C(NCc1ccc(OC(F)(F)F)cc1)[C@H]1CN(c2nn3c(C(F)(F)F)cc(=O)nc3s2)CCN1S(=O)(=O)c1ccc(OC(F)(F)F)cc1 [Example 1049, (R)-4-(7-oxo-5-trifluoromethyl-7H-[1,3,4]thiadiazolo[3,2-a]pyrimidin-2-yl)-1-(4-trifluoromethoxy-benzenesulfonyl)-piperazine-2-carboxylic acid 4-trifluoromethoxy-benzylamide] | < 100 | < 100 |
| COc1ccc2nc(N3CCN(S(=O)(=O)c4ccc(OC(F)(F)F)cc4)[C@@H](C(=O)NCc4ccc(OC(F)(F)F)cc4)C3)sc2n1 [Example 1050, (R)-4-(5-methoxy-thiazolo[5,4-b]pyridin-2-yl)-1-(4-trifluoromethoxy-benzenesulfonyl)-piperazine-2-carboxylic acid 4-trifluoromethoxy-benzylamide] | 100 to 1000 | 100 to 1000 |
| Cc1ncc2sc(N3CCN(S(=O)(=O)c4ccc(OC(F)(F)C(F)F)cc4)[C@@H](C(=O)NCc4ccc(OC(F)(F)F)cc4)C3)nc2n1 [Example 1051, (R)-4-(5-methyl-thiazolo[4,5-d]pyrimidin-2-yl)-1-[4-(1,1,2,2-tetrafluoro-ethoxy)-benzenesulfonyl]-piperazine-2-carboxylic acid 4-trifluoromethoxy-benzylamide] | < 100 | < 100 |
| O=C(NCc1ccc(OC(F)(F)F)cc1)[C@H]1CN(c2nc3nc(CO)ncc3s2)CCN1S(=O)(=O)c1ccc(C(F)(F)F)cc1 [Example 1052, (R)-4-(5-hydroxymethyl-thiazolo[4,5-d]pyrimidin-2-yl)-1-(4-trifluoromethyl-benzenesulfonyl)-piperazine-2-carboxylic acid 4-trifluoromethoxy-benzylamide] | < 100 | < 100 |
| O=C(NCc1ccc(OC(F)F)cc1)[C@H]1CN(c2nn3ccc(=O)nc3s2)CCN1S(=O)(=O)c1ccc(OC(F)(F)F)cc1 [Example 1053, (R)-4-(7-oxo-7H-[1,3,4]thiadiazolo[3,2-a]pyrimidin-2-yl)-1-(4-trifluoromethoxy-benzenesulfonyl)-piperazine-2-carboxylic acid 4-difluoromethoxy-benzylamide] | < 100 | < 100 |
| CON(C)C(=O)c1ncc2sc(N3CCN(S(=O)(=O)c4ccc(OC(F)(F)F)cc4)[C@@H](C(=O)NCc4ccc(OC(F)(F)F)cc4)C3)nc2n1 [Example 1054, 2-[(R)-4-(4-trifluoromethoxy-benzenesulfonyl)-3-(4-trifluoromethoxy-benzylcarbamoyl)-piperazin-1-yl]-thiazolo[4,5-d]pyrimidine-5-carboxylic acid methoxy-methyl-amide] | < 100 | < 100 |
| COCc1nc(N)c2sc(N3CCN(S(=O)(=O)c4ccc(OC(F)(F)F)cc4)[C@@H](C(=O)NCc4ccc(OC(F)(F)F)cc4)C3)nc2n1 [Example 1055, (R)-4-(7-amino-5-methoxymethyl-thiazolo[4,5-d]pyrimidin-2-yl)-1-(4-trifluoromethoxy-benzenesulfonyl)-piperazine-2-carboxylic acid 4-trifluoromethoxy-benzylamide] | < 100 | < 100 |
| O=C(NCc1ccc(OC(F)(F)F)cc1)[C@H]1CN(c2nc3nc(CN4CCCC4)ncc3s2)CCN1S(=O)(=O)c1ccc(OC(F)(F)F)cc1 [Example 1056, (R)-4-(5-pyrrolidin-1-ylmethyl-thiazolo[4,5-d]pyrimidin-2-yl)-1-(4-trifluoromethoxy-benzenesulfonyl)-piperazine-2-carboxylic acid 4-trifluoromethoxy-benzylamide] | < 100 | < 100 |

Reference: patent US8017612B2, “Piperazine compound and use thereof as a HCV polymerase inhibitor” (priority 2006, dated 2011)
